In the supplement of paper PMC10307832:

What was measured:
Test in all cases: relative viability (nuclei count vs DMSO), 5 days (fraction); higher = more cells survive
Zosuquidar + Decitabine = compound: O[C@@H](COc1cccc2ncccc12)CN1CCN([C@@H]2c3ccccc3[C@@H]3[C@H](c4ccccc42)C3(F)F)CC1 [Zosuquidar] + Nc1ncn([C@H]2C[C@H](O)[C@@H](CO)O2)c(=O)n1 [Decitabine] (partner 2 µM)
Outline: (§1)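 Relative viability was taken as the ratio of nuclei in treated wells to nuclei in vehicle wells. Lung cancer cell lines in 1536-well plates received compounds by pin tool one day after seeding, either one drug alone or a fixed anchor-drug dose plus five library-drug doses (not always all listed) in √10 steps. Nuclei were counted on 4× images after 5 days of treatment, and values are medians of duplicate plates.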

[1] = compound: COc1cc2nccc(Oc3ccc(NC(=O)C4(C(=O)Nc5ccc(F)cc5)CC4)cc3)c2cc1OC [Cabozantinib] + CC(=O)c1c(C)c2cnc(Nc3ccc(N4CCNCC4)cn3)nc2n(C2CCCC2)c1=O [Palbociclib] (partner 0.5 µM)
Outline: as §1

Cabozantinib + Foretinib = compound: COc1cc2nccc(Oc3ccc(NC(=O)C4(C(=O)Nc5ccc(F)cc5)CC4)cc3)c2cc1OC [Cabozantinib] + COc1cc2c(Oc3ccc(NC(=O)C4(C(=O)Nc5ccc(F)cc5)CC4)cc3F)ccnc2cc1OCCCN1CCOCC1 [Foretinib] (partner 0.25 µM)
Outline: as §1

Kobe2602 + Olaparib = compound: C1=CC(=CC=C1NC(=S)NNC2=C(C=C(C=C2[N+](=O)[O-])C(F)(F)F)[N+](=O)[O-])F [Kobe2602] + O=C(c1cc(Cc2n[nH]c(=O)c3ccccc23)ccc1F)N1CCN(C(=O)C2CC2)CC1 [Olaparib] (partner 8 µM)
Outline: as §1

Cell Line	relative viability (Zosuquidar + Decitabine; first compound 0.01 µM)	relative viability (Zosuquidar + Decitabine; first compound 0.03162 µM)	relative viability (Zosuquidar + Decitabine; first compound 0.1 µM)	relative viability (Zosuquidar + Decitabine; first compound 0.3162 µM)	relative viability (Zosuquidar + Decitabine; first compound 1 µM)	relative viability ([1]; first compound 0.02 µM)	relative viability ([1]; first compound 0.06325 µM)	relative viability ([1]; first compound 0.2 µM)	relative viability ([1]; first compound 0.6325 µM)	relative viability ([1]; first compound 2 µM)	relative viability (Cabozantinib + Foretinib; first compound 0.02 µM)	relative viability (Cabozantinib + Foretinib; first compound 0.06325 µM)	relative viability (Cabozantinib + Foretinib; first compound 0.2 µM)	relative viability (Cabozantinib + Foretinib; first compound 0.6325 µM)	relative viability (Cabozantinib + Foretinib; first compound 2 µM)	relative viability (Kobe2602 + Olaparib; first compound 0.2 µM)	relative viability (Kobe2602 + Olaparib; first compound 0.6325 µM)	relative viability (Kobe2602 + Olaparib; first compound 2 µM)	relative viability (Kobe2602 + Olaparib; first compound 6.325 µM)	relative viability (Kobe2602 + Olaparib; first compound 20 µM)
NCI-H2009	0.348	0.338	0.376	0.327	0.344	0.209	0.25	0.269	0.277	0.141	1.24	1.26	1.19	1.28	1.29	0.685	0.701	0.735	0.714	0.736
NCI-H2023	0.195	0.281	0.235	0.246	0.268	0.386	0.321	0.271	0.247	0.199	0.917	1.2	1.05	0.956	0.896	0.496	0.566	0.511	0.446	0.166
NCI-H2085	0.556	0.586		0.653	0.55	0.519	0.469	0.524	0.476	0.498	0.765	1.05	0.982	1.05	0.855	0.768	0.835	0.848	0.809	0.799
NCI-H2087	0.262	0.3	0.305	0.206	0.33	0.187	0.302	0.273	0.249	0.253	1.17	1	1.3	1.2	0.967	0.564	0.696	0.705	0.639	0.637
NCI-H2126	0.571	0.592	0.624	0.627	0.538	0.315	0.37	0.336	0.364	0.332		1.36	1.22	1.06	1.17	0.868	0.892	0.905	0.929	0.926
NCI-H2170	0.451	0.476	0.482	0.466	0.512	0.408	0.407	0.355	0.369	0.438	1.01	0.999	1	0.949	0.974	0.561	0.574	0.53	0.597	0.625
NCI-H2342	0.703	0.801	0.721	0.738	0.717	0.519	0.466	0.493	0.501	0.495	1.09	1.16	1.08	1.06	0.799	0.415	0.406	0.435	0.493	0.434
NCI-H2347	0.689	0.648	0.657	0.694	0.643	0.474	0.466	0.49	0.478	0.401	0.842	0.916	1.28	1.11	1.05	0.603	0.548	0.559	0.53	0.607
NCI-H2405	0.737	0.777	0.734	0.767	0.758	0.509	0.568	0.568	0.569	0.519	1.01	1.04	1.05	1.05	1.01	0.915	0.874	0.868	0.905	0.909
NCI-H3122	0.394	0.449	0.417	0.508	0.457	0.183	0.179	0.168	0.192	0.211	0.947	0.973	0.949	0.892	0.946	0.551	0.602	0.621	0.56	0.619
PC-3 [JPC-3]	0.886	0.925	0.791	0.859	0.79	0.574	0.559		0.514	0.636	1.19	1.2		1.09	1.04	1.1	1.22	1.13	1.19	1.13
PC-14	0.224	0.176	0.212	0.195	0.205	0.511	0.703		0.516	0.417	0.99	1		1.05	0.976	0.24	0.356	0.256	0.259	0.101
RERF-LC-KJ	0.717	0.727	0.691	0.776	0.691	1.03	1.2	0.652	0.568	1.07	0.921	0.852	0.863	0.899	0.943	0.936	0.957	0.9	0.525	0.282
SK-LU-1	0.652	0.66	0.684	0.679	0.638	0.357	0.486	0.439	0.344	0.364	0.868	1.01	0.904	0.845	0.699	0.463	0.471	0.494	0.457	0.523
SK-MES-1	0.343	0.36	0.347	0.422	0.402	0.34	0.305	0.379	0.39	0.298	0.936	1.1	0.948	1.09	0.802	0.674	0.643	0.635	0.551	0.281
SW 900	0.478	0.466		0.394	0.421	0.585	0.601	0.436	0.55	0.492	0.848	0.952	0.837	0.695	0.968	0.914	0.981	0.679	0.969	0.976
SW 1573	0.372	0.508	0.568	0.598	0.591	0.422	0.456	0.364	0.39	0.308	0.966	0.828	0.984	1.09	0.964	0.477	0.416	0.306	0.466	0.152
